Data published in article PMC10620772, “Design, synthesis, and biological evaluation of new pyrimidine-5-carbonitrile derivatives as novel anti-cancer, dual EGFR^WT/COX-2 inhibitors with docking studies” (RSC Advances, 2023).

Legend:
Test in all cases: NCI60 antitumor screening
Format in all cases: cell-based, human
OVCAR-5 = tested on: OVCAR-5
PC-3 = tested on: PC-3
NCI-H522 = tested on: NCI-H522
UACC-257 = tested on: UACC-257
HOP-62 = tested on: HOP-62
SF-295 = tested on: SF-295
T-47D = tested on: T-47D
IGROV1 = tested on: IGROV1
SK-MEL-5 = tested on: SK-MEL-5
U251 = tested on: U251
786–0 = tested on: 786–0
OVCAR-3 = tested on: OVCAR-3
KM12 = tested on: KM12
MCF7 = tested on: MCF7
HS 578T = tested on: HS 578T
CAKI-1 = tested on: CAKI-1
CCRF-CEM = tested on: CCRF-CEM
HCT-15 = tested on: HCT-15
MDA-MB-468 = tested on: MDA-MB-468
[1] = Homo sapiens, MDA-MB-468, five-dose

Which inhibition at 10 µM (OVCAR-5; Homo sapiens, 10 μM single dose, OVCAR-5 (ovarian cancer), read-out: growth inhibition percent (GI%)) does the source give for `N#Cc1c(-c2ccc(F)cc2)nc(SCc2ccc(F)cc2)nc1N1CCNCC1` [4f, 2-((4-Fluorobenzyl)thio)-4-(4-fluorophenyl)-6-(piperazin-1-yl) pyrimidine-5-carbonitrile] here?
Its inhibition at 10 µM is 99.2%.

And the TGI (OVCAR-5; five-dose)?
Its TGI is 28.00 µM.

And the GI% (PC-3; 10 μM one-dose)?
Its GI% is 88.74%.

What about the GI50 (PC-3; Homo sapiens, PC-3, five-dose) of the same compound?
The GI50 was 12.5 µM.

What about the CC50 (PC-3; Homo sapiens, PC-3, five-dose, read-out: LC50 (the source's name)) of the same compound?
Its CC50 is 61.3 µM.

What about the inhibition at 10 µM (PC-3; Homo sapiens, 10 μM single dose, PC-3 (prostate cancer), read-out: growth inhibition percent (GI%)) of the same compound?
Its inhibition at 10 µM is 88.7%.

And the TGI (PC-3; five-dose)?
The TGI was 27.70 µM.

What about the GI50 (NCI-H522; Homo sapiens, NCI-H522, five-dose) of the same compound?
The GI50 was 13.9 µM.

And the CC50 (NCI-H522; Homo sapiens, NCI-H522, five-dose, read-out: LC50 (the source's name))?
Its CC50 is 64.3 µM.

And the inhibition at 10 µM (NCI-H522; Homo sapiens, 10 μM single dose, NCI-H522 (non-small cell lung cancer), read-out: growth inhibition percent (GI%))?
Its inhibition at 10 µM is over 100%.

And the TGI (NCI-H522; five-dose)?
Its TGI is 29.90 µM.

And the GI50 (UACC-257; Homo sapiens, UACC-257, five-dose)?
The GI50 was 14.8 µM.

What about the CC50 (UACC-257; Homo sapiens, UACC-257, five-dose, read-out: LC50 (the source's name)) of the same compound?
The CC50 was 55.8 µM.

What about the inhibition at 10 µM (UACC-257; Homo sapiens, 10 μM single dose, UACC-257 (melanoma), read-out: growth inhibition percent (GI%)) of the same compound?
Its inhibition at 10 µM is over 100%.

What about the TGI (UACC-257; five-dose) of the same compound?
The TGI was 28.70 µM.

And the GI50 (HOP-62; Homo sapiens, HOP-62, five-dose)?
The GI50 was 17 µM.

What about the CC50 (HOP-62; Homo sapiens, HOP-62, five-dose, read-out: LC50 (the source's name)) of the same compound?
The CC50 was 65.8 µM.

And the inhibition at 10 µM (HOP-62; Homo sapiens, 10 μM single dose, HOP-62 (non-small cell lung cancer), read-out: growth inhibition percent (GI%))?
Its inhibition at 10 µM is over 100%.

And the TGI (HOP-62; five-dose)?
The TGI was 33.40 µM.

What about the GI50 (SF-295; Homo sapiens, SF-295, five-dose) of the same compound?
Its GI50 is 16.6 µM.

What about the CC50 (SF-295; Homo sapiens, SF-295, five-dose, read-out: LC50 (the source's name)) of the same compound?
The CC50 was 57.5 µM.

What about the inhibition at 10 µM (SF-295; Homo sapiens, 10 μM single dose, SF-295 (CNS cancer), read-out: growth inhibition percent (GI%)) of the same compound?
Its inhibition at 10 µM is over 100%.

What about the TGI (SF-295; five-dose) of the same compound?
The TGI was 30.90 µM.

What about the inhibition at 10 µM (T-47D; Homo sapiens, T47D, 10 μM single dose, T-47D (breast cancer), read-out: growth inhibition percent (GI%)) of the same compound?
Its inhibition at 10 µM is over 100%.

What about the GI50 (T-47D; Homo sapiens, T47D, five-dose) of the same compound?
The GI50 was 13.8 µM.

What about the CC50 (T-47D; Homo sapiens, T47D, five-dose, read-out: LC50 (the source's name)) of the same compound?
The CC50 was 67.2 µM.

What about the TGI (T-47D; five-dose) of the same compound?
Its TGI is 30.40 µM.

What about the inhibition at 10 µM (IGROV1; Homo sapiens, IGROV-1, 10 μM single dose, IGROV1 (ovarian cancer), read-out: growth inhibition percent (GI%)) of the same compound?
Its inhibition at 10 µM is over 100%.

And the GI50 (IGROV1; Homo sapiens, IGROV-1, five-dose)?
Its GI50 is 15.6 µM.

What about the CC50 (IGROV1; Homo sapiens, IGROV-1, five-dose, read-out: LC50 (the source's name)) of the same compound?
Its CC50 is 56.8 µM.

What about the TGI (IGROV1; five-dose) of the same compound?
Its TGI is 29.80 µM.

And the GI50 (SK-MEL-5; Homo sapiens, SK-MEL-5, five-dose)?
Its GI50 is 16.8 µM.

What about the CC50 (SK-MEL-5; Homo sapiens, SK-MEL-5, five-dose, read-out: LC50 (the source's name)) of the same compound?
The CC50 was 55.4 µM.

What about the inhibition at 10 µM (SK-MEL-5; Homo sapiens, 10 μM single dose, SK-MEL-5 (melanoma), read-out: growth inhibition percent (GI%)) of the same compound?
The inhibition at 10 µM was over 100%.

And the TGI (SK-MEL-5; five-dose)?
The TGI was 30.50 µM.

What about the inhibition at 10 µM (U251; Homo sapiens, U-251, 10 μM single dose, U251 (CNS cancer), read-out: growth inhibition percent (GI%)) of the same compound?
The inhibition at 10 µM was over 100%.

And the GI50 (U251; Homo sapiens, U-251, five-dose)?
Its GI50 is 10.3 µM.

And the CC50 (U251; Homo sapiens, U-251, five-dose, read-out: LC50 (the source's name))?
Its CC50 is 59.1 µM.

What about the TGI (U251; five-dose) of the same compound?
Its TGI is 24.70 µM.

What about the GI50 (786–0; Homo sapiens, 786-0, five-dose) of the same compound?
The GI50 was 13.8 µM.

And the LC50 (concentration killing 50% of tumour cells) (786–0; Homo sapiens, 786-0, five-dose)?
The LC50 (concentration killing 50% of tumour cells) was 62.6 µM.

What about the inhibition at 10 µM (786–0; Homo sapiens, 10 μM single dose, 786–0 (renal cancer), read-out: growth inhibition percent (GI%)) of the same compound?
Its inhibition at 10 µM is over 100%.

And the TGI (786–0; five-dose)?
The TGI was 29.30 µM.

What about the GI50 (OVCAR-3; Homo sapiens, OVCAR-3, five-dose) of the same compound?
The GI50 was 15.5 µM.

And the CC50 (OVCAR-3; Homo sapiens, OVCAR-3, five-dose, read-out: LC50 (the source's name))?
The CC50 was 61.2 µM.

And the inhibition at 10 µM (OVCAR-3; Homo sapiens, 10 μM single dose, OVCAR-3 (ovarian cancer), read-out: growth inhibition percent (GI%))?
The inhibition at 10 µM was over 100%.

And the TGI (OVCAR-3; five-dose)?
Its TGI is 30.80 µM.

And the GI50 (KM12; Homo sapiens, KM12, five-dose)?
Its GI50 is 18 µM.

And the CC50 (KM12; Homo sapiens, KM12, five-dose, read-out: LC50 (the source's name))?
Its CC50 is 63 µM.

And the inhibition at 10 µM (KM12; Homo sapiens, 10 μM single dose, KM12 (colon cancer), read-out: growth inhibition percent (GI%))?
Its inhibition at 10 µM is over 100%.

What about the TGI (KM12; five-dose) of the same compound?
The TGI was 33.60 µM.

And the GI50 (MCF7; Homo sapiens, MCF7, five-dose)?
Its GI50 is 6.43 µM.

What about the CC50 (MCF7; Homo sapiens, MCF7, five-dose, read-out: LC50 (the source's name)) of the same compound?
Its CC50 is 50.1 µM.

And the inhibition at 10 µM (MCF7; Homo sapiens, 10 μM single dose, MCF7 (breast cancer), read-out: growth inhibition percent (GI%))?
The inhibition at 10 µM was over 100%.

And the TGI (MCF7; five-dose)?
Its TGI is 20.20 µM.

And the GI50 (HS 578T; Homo sapiens, Hs-578T, five-dose)?
Its GI50 is 15.6 µM.

And the CC50 (HS 578T; Homo sapiens, Hs-578T, five-dose, read-out: LC50 (the source's name))?
The CC50 was 77 µM.

And the inhibition at 10 µM (HS 578T; Homo sapiens, 10 μM single dose, HS 578T (breast cancer), read-out: growth inhibition percent (GI%))?
Its inhibition at 10 µM is over 100%.

What about the TGI (HS 578T; five-dose) of the same compound?
The TGI was 34.60 µM.

What about the GI50 (CAKI-1; Homo sapiens, CAKI-1, five-dose) of the same compound?
The GI50 was 15.3 µM.

And the CC50 (CAKI-1; Homo sapiens, CAKI-1, five-dose, read-out: LC50 (the source's name))?
The CC50 was 54.6 µM.

What about the inhibition at 10 µM (CAKI-1; Homo sapiens, 10 μM single dose, CAKI-1 (renal cancer), read-out: growth inhibition percent (GI%)) of the same compound?
Its inhibition at 10 µM is over 100%.

And the TGI (CAKI-1; five-dose)?
Its TGI is 29.00 µM.

And the GI% (CCRF-CEM; 10 μM one-dose)?
Its GI% is 95.51%.

And the GI50 (CCRF-CEM; Homo sapiens, CCRF-CEM, five-dose)?
The GI50 was 14.9 µM.

What about the CC50 (CCRF-CEM; Homo sapiens, CCRF-CEM, five-dose, read-out: LC50 (the source's name)) of the same compound?
The CC50 was 76 µM.

What about the inhibition at 10 µM (CCRF-CEM; Homo sapiens, 10 μM single dose, CCRF-CEM (leukaemia), read-out: growth inhibition percent (GI%)) of the same compound?
Its inhibition at 10 µM is 95.5%.

And the TGI (CCRF-CEM; five-dose)?
The TGI was 33.60 µM.

What about the GI50 (HCT-15; Homo sapiens, HCT-15, five-dose) of the same compound?
Its GI50 is 11.7 µM.

And the CC50 (HCT-15; Homo sapiens, HCT-15, five-dose, read-out: LC50 (the source's name))?
Its CC50 is 51.8 µM.

And the inhibition at 10 µM (HCT-15; Homo sapiens, 10 μM single dose, HCT-15 (colon cancer), read-out: growth inhibition percent (GI%))?
The inhibition at 10 µM was over 100%.

What about the TGI (HCT-15; five-dose) of the same compound?
The TGI was 24.60 µM.

And the GI50 (MDA-MB-468; [1])?
Its GI50 is 12.4 µM.

And the LC50 (MDA-MB-468; [1])?
The LC50 was 55.3 µM.

What about the inhibition at 10 µM (MDA-MB-468; Homo sapiens, 10 μM single dose, MDA-MB-468 (breast cancer), read-out: growth inhibition percent (GI%)) of the same compound?
Its inhibition at 10 µM is over 100%.

And the TGI (MDA-MB-468; five-dose)?
Its TGI is 26.20 µM.
